Results taken from PubChem BioAssay AID1963982 (Molecular Pharmacology Branch, DTP, NCI, 2024).

System: 313798-341-R-J2-PDC spheroids, viability
Assay: Anticancer human tumor 313798-341-R-J2-PDC patient-derived cervical squamous cell carcinoma cell line growth inhibition [PI3K]
Conditions: spheroids with HUVEC and MSC; for IC50: curve of first compound; for viability, T/C: stronger effect = lower value; active means viability on the fitted dose curve at most 10% of control; inactive means the rest
Text: Combinatorial screen of targeted agents with the PI3K inhibitors inavolisib, alpelisib, duvelisib, and copanlisib in multi-cell type tumor spheroids
A high-throughput screen of multi-cell type tumor spheroids was designed to identify active combinations of targeted small molecules and PI3K pathway inhibitors. Complex spheroids include a stromal component modeled by human endothelial cells (HUVEC) and fibroblasts modeled by human mesenchymal stem cells (MSCs). The concentration ranges selected for each drug and investigational agent were based upon clinically achievable concentrations if the clinical Cmax of the agent was known.
Compounds. The drugs and investigational agents: inavolisib (NSC800729), alpelisib (NSC765974), duvelisib (NSC772469), copanlisib (NSC816437), ipatasertib (NSC767898), afuresertib (NSC778305), talazoparib (NSC767125), sapanisertib (NSC764658), selumetinib (NSC741078), tovorafenib (DAY101, NSC766906), vemurafenib (NSC761431), ravoxertinib (NSC781343), sotorasib (NSC818433), MRTX1133 (NSC 836407), abemaciclib (NSC 768073), palbociclib (NSC758247), venetoclax (NSC 766270), SY5609 (NSC837396), enzalutamide (NSC755605), and darolutamide (NSC825331), were obtained from the National Cancer Institute (NCI) Developmental Therapeutics Program Chemical Repository. The FDA-approved anticancer drug set is available from the NCI Developmental Therapeutics Program. […] The stock solutions were prepared in dimethyl sulfoxide (DMSO, Sigma-Aldrich, St. Louis, MO, cat. D2650) at 800-fold the tested concentration and stored at -70 degrees C prior to their use. All drugs and investigational agents were tested over a range starting from a high concentration at or near the clinical Cmax and decreasing in half-log increments. If the clinical Cmax for an agent had not been determined, the highest concentration tested was 10 microM.
Cell Culture. All cells were maintained in an incubator at 37 degrees C and 5% CO2 with 95% humidity. The PDC lines were cultured according to standard operating procedures established by the NCI PDMR (https://pdmr.cancer.gov/sops/default.htm). All PDCs were thawed and cultured in Matrigel-coated flasks prepared with a working solution of 1X Ham's F-12 nutrient mix, without supplementation (Invitrogen, Waltham, MA, cat. 11765054), 100 U/mL penicillin-streptomycin (Invitrogen, cat. 15140122), and 2.5% Matrigel (Corning Inc., Corning, NY, cat. 354248) for the first three passages. The 354836-022-R-J1-PDC, 475296-252-R-J1-PDC, and 997726-040-R-J2-PDC lines were cultured in 6A media, which includes advanced DMEM/F-12 (Thermo Fisher Scientific, cat. 12634028), 10 mM HEPES (Thermo Fisher Scientific, cat. 15630080), 1X GlutaMAX supplement (Thermo Fisher Scientific, cat. 35050061), 0.1 mg/mL primocin (InvivoGen, San Diego, CA, cat. ant-pm-2), 10% defined fetal bovine serum, heat inactivated (HyClone Laboratories Inc., Logan, UT, cat. SH30070.03HI), 50% L-WRN conditioned media (ATCC, cat. CRL-3276), 1.25 mM N-Acetyl-L-cysteine (Sigma-Aldrich, cat. A9165), 10 mM nicotinamide (Sigma-Aldrich, cat. N0636), 1X B-27 supplement (Thermo Fisher Scientific, cat. 17504044), 1X N-2 supplement (Thermo Fisher Scientific, cat. 17502048), and 10 microM Y-27632 dihydrochloride (Tocris Bioscience, Bristol, United Kingdom, cat. 1254). The 624824-186-R-J2-PDC line was cultured in 6C/Colon 1B media, which includes all 6A media components plus 50 ng/mL human EGF recombinant protein (Thermo Fisher Scientific, cat. PHG0311). […]
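Further: spheroids exposed to compounds for seven days.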

CNC(=O)c1ccc(N2C(=S)N(c3ccc(C#N)c(C(F)(F)F)c3)C(=O)C2(C)C)cc1F + CC(Nc1ccc2c(c1)OCCn1cc(N3C(=O)OCC3C(F)F)nc1-2)C(N)=O
inactive: viability, T/C (second compound 0.00316 µM, first compound 0.0316 µM) 99.8% | viability, T/C (second compound 0.00316 µM, first compound 0.1 µM) 87% | viability, T/C (second compound 0.00316 µM, first compound 0.316 µM) 89.7% | viability, T/C (second compound 0.00316 µM, first compound 1 µM) 101% | viability, T/C (second compound 0.00316 µM, first compound 3.16 µM) 99.3% | viability, T/C (second compound 0.00316 µM, first compound 10 µM) 88.2% | viability, T/C (second compound 0.01 µM, first compound 0.0316 µM) 103% | viability, T/C (second compound 0.01 µM, first compound 0.1 µM) 94.8% | viability, T/C (second compound 0.01 µM, first compound 0.316 µM) 97.6% | viability, T/C (second compound 0.01 µM, first compound 1 µM) 91.3% | viability, T/C (second compound 0.01 µM, first compound 3.16 µM) 101% | viability, T/C (second compound 0.01 µM, first compound 10 µM) 90% | viability, T/C (second compound 0.0316 µM, first compound 0.0316 µM) 93.3% | viability, T/C (second compound 0.0316 µM, first compound 0.1 µM) 101% | viability, T/C (second compound 0.0316 µM, first compound 0.316 µM) 102% | viability, T/C (second compound 0.0316 µM, first compound 1 µM) 92.8% | viability, T/C (second compound 0.0316 µM, first compound 3.16 µM) 97.5% | viability, T/C (second compound 0.0316 µM, first compound 10 µM) 90.1% | viability, T/C (second compound 0.1 µM, first compound 0.0316 µM) 97.7% | viability, T/C (second compound 0.1 µM, first compound 0.1 µM) 92% | viability, T/C (second compound 0.1 µM, first compound 0.316 µM) 91.9% | viability, T/C (second compound 0.1 µM, first compound 1 µM) 91.7% | viability, T/C (second compound 0.1 µM, first compound 3.16 µM) 87.5% | viability, T/C (second compound 0.1 µM, first compound 10 µM) 77.6% | viability, T/C (second compound 0.316 µM, first compound 0.0316 µM) 82.7% | viability, T/C (second compound 0.316 µM, first compound 0.1 µM) 75.8% | viability, T/C (second compound 0.316 µM, first compound 0.316 µM) 79.7% | viability, T/C (second compound 0.316 µM, first compound 1 µM) 70.2% | viability, T/C (second compound 0.316 µM, first compound 3.16 µM) 62.2% | viability, T/C (second compound 0.316 µM, first compound 10 µM) 60.2% | viability, T/C (second compound 1 µM, first compound 0.0316 µM) 50.2% | viability, T/C (second compound 1 µM, first compound 0.1 µM) 59.6% | viability, T/C (second compound 1 µM, first compound 0.316 µM) 53% | viability, T/C (second compound 1 µM, first compound 1 µM) 51.1% | viability, T/C (second compound 1 µM, first compound 3.16 µM) 51.8% | viability, T/C (second compound 1 µM, first compound 10 µM) 44.7%
3.72 µM: IC50 (second compound 1 µM)
> 10 µM: IC50 (second compound 0.00316 µM) | IC50 (second compound 0.01 µM) | IC50 (second compound 0.0316 µM) | IC50 (second compound 0.1 µM) | IC50 (second compound 0.316 µM)
